Where two headings read alike, the source gives them in different places.
Tested on: Mycosphaerella graminicola; Anamorph: Septoria tritici; Bayer Code SEPTTR
Experiment: Leaf blotch of wheat, foliar fungicide treatment, one day protectant (1DP) or three day curative (3DC)
Format: in vivo, Septoria tritici on wheat plants (variety Yuma)
Conditions: Zymoseptoria tritici; for pest or weed control at 200 ppm / pest or weed control at 50 ppm: % disease control rating
[1] = 24 h, one day protectant (1DP), 25 ppm, rating of percent disease control, read-out: SETTTR 1DP 25 ppm
[2] = 24 h, one day protectant (1DP), rating of percent disease control, read-out: SEPTTR 1DP 100 ppm
[3] = 72 h, three day curative (3DC), 25 ppm, rating of percent disease control, read-out: SEPTTR 3DC 25 ppm
[4] = 72 h, three day curative (3DC), rating of percent disease control, read-out: SEPTTR 3DC 100 ppm
[5] = 24 h, one day protectant (1DP), 25 ppm, percent disease control rating, read-out: SETTTR 1DP 25 ppm
[6] = 24 h, one day protectant (1DP), percent disease control rating, read-out: SEPTTR 1DP 100 ppm
[7] = 72 h, three day curative (3DC), 25 ppm, percent disease control rating, read-out: SEPTTR 3DC 25 ppm
[8] = 72 h, three day curative (3DC), percent disease control rating, read-out: SEPTTR 3DC 100 ppm
[9] = 24 h, one day protectant, 25 ppm, rating of percent disease control, read-out: SETTTR 1DP 25 ppm
[10] = 24 h, one day protectant, rating of percent disease control, read-out: SEPTTR 1DP 100 ppm
[11] = 72 h, three day curative, 25 ppm, rating of percent disease control, read-out: SEPTTR 3DC 25 ppm
[12] = 72 h, three day curative, rating of percent disease control, read-out: SEPTTR 3DC 100 ppm
[13] = 24 h, one day protectant (1DP), 25 ppm (first 1DP column), percent control rating, read-out: SETTTR 1DP 25 ppm
[14] = 24 h, one day protectant (1DP), 25 ppm as printed (second 1DP column), percent control rating, read-out: SETTTR 1DP 25 ppm
[15] = 72 h, three day curative (3DC), 25 ppm, percent control rating, read-out: SEPTTR 3DC 25 ppm
[16] = 72 h, three day curative (3DC), percent control rating, read-out: SEPTTR 3DC 100 ppm

COc1ccc(CCCOc2ncc(F)c(N)n2)cc1 [Compound 462]
pest or weed control at 25 ppm [1]: 51 to 75% | pest or weed control at 100 ppm [2]: 76 to 100% | pest or weed control at 25 ppm [3]: 51 to 75% | pest or weed control at 100 ppm [4]: 26 to 50%

CCCNC(=O)Nc1nc(OCc2cccc(OC)c2)ncc1F [Compound 534]
pest or weed control at 25 ppm [1]: 0 to 25% | pest or weed control at 100 ppm [2]: 26 to 50% | pest or weed control at 25 ppm [3]: 0 to 25% | pest or weed control at 100 ppm [4]: 26 to 50%

Fc1cnc(OCc2ccccc2)nc1N/N=C/c1ccco1 [Compound 357]
pest or weed control at 25 ppm [1]: 26 to 50% | pest or weed control at 100 ppm [2]: 26 to 50% | pest or weed control at 25 ppm [3]: 0 to 25% | pest or weed control at 100 ppm [4]: 51 to 75%

Nc1nc(OCc2ccc(Br)cc2)ncc1F [Compound 757]
pest or weed control at 25 ppm [1]: 76 to 100% | pest or weed control at 100 ppm [2]: 76 to 100% | pest or weed control at 25 ppm [3]: 76 to 100% | pest or weed control at 100 ppm [4]: 76 to 100%

O=C(NCc1ccccc1F)Nc1nc(OCc2cccs2)ncc1F [Compound 116]
pest or weed control at 25 ppm [5]: 0 to 25% | pest or weed control at 100 ppm [6]: 0 to 25% | pest or weed control at 25 ppm [7]: 0 to 25% | pest or weed control at 100 ppm [8]: 0 to 25%

Fc1cnc(OCc2ccc(OC(F)(F)F)cc2)nc1NC1CC1 [Compound 855]
pest or weed control at 200 ppm (24 h, one day protectant): 76 to 100%

Nc1nc(OCc2ccc(SC(F)(F)F)cc2)ncc1F [Compound 632]
pest or weed control at 25 ppm [9]: 76 to 100% | pest or weed control at 100 ppm [10]: 76 to 100% | pest or weed control at 25 ppm [11]: 76 to 100% | pest or weed control at 100 ppm [12]: 76 to 100%

C=CCOC(=O)Nc1nc(OCc2ccc(C)cc2)ncc1F [Compound 987]
pest or weed control at 25 ppm [13]: 76 to 100% | pest or weed control at 25 ppm [14]: 76 to 100% | pest or weed control at 25 ppm [15]: 76 to 100% | pest or weed control at 100 ppm [16]: 76 to 100%

Cc1ccc(CNc2nc(OCCc3ccccc3)ncc2F)cc1 [Compound 871]
pest or weed control at 50 ppm (24 h, one day protectant): 0 to 25% | pest or weed control at 200 ppm (24 h, one day protectant): 26 to 50%

COc1cccc(COc2ncc(F)c(N(N)c3ccccc3)n2)c1 [Compound 367]
pest or weed control at 25 ppm [1]: 0 to 25% | pest or weed control at 100 ppm [2]: 0 to 25% | pest or weed control at 25 ppm [3]: 0 to 25% | pest or weed control at 100 ppm [4]: 0 to 25%

COc1ccc(COc2ncc(F)c(NCc3ccccc3F)n2)cc1 [Compound 249]
pest or weed control at 25 ppm [1]: 26 to 50% | pest or weed control at 100 ppm [2]: 76 to 100% | pest or weed control at 25 ppm [3]: 26 to 50% | pest or weed control at 100 ppm [4]: 51 to 75%

Cn1c(COc2ncc(F)c(N)n2)cc2sccc21 [Compound 76]
pest or weed control at 25 ppm [5]: 26 to 50% | pest or weed control at 100 ppm [6]: 26 to 50% | pest or weed control at 25 ppm [7]: 26 to 50% | pest or weed control at 100 ppm [8]: 26 to 50%

Nc1nc(OCc2ccc(I)cc2)ncc1F [Compound 725]
pest or weed control at 25 ppm [9]: 76 to 100% | pest or weed control at 100 ppm [10]: 76 to 100% | pest or weed control at 25 ppm [11]: 76 to 100% | pest or weed control at 100 ppm [12]: 76 to 100%

Fc1ccc(COc2ncc(F)c(N3CCOCC3)n2)cc1 [Compound 897]
pest or weed control at 50 ppm (24 h, one day protectant): 0 to 25% | pest or weed control at 200 ppm (24 h, one day protectant): 51 to 75%

O=C(Nc1cccs1)Nc1nc(OCc2ccc(F)cc2)ncc1F [Compound 376]
pest or weed control at 25 ppm [1]: 0 to 25% | pest or weed control at 100 ppm [2]: 0 to 25% | pest or weed control at 25 ppm [3]: 0 to 25% | pest or weed control at 100 ppm [4]: 26 to 50%

Nc1nc(OCc2ccc(C(F)(F)F)cc2)ncc1F [Compound 705]
pest or weed control at 25 ppm [9]: 76 to 100% | pest or weed control at 100 ppm [10]: 76 to 100% | pest or weed control at 25 ppm [11]: 51 to 75% | pest or weed control at 100 ppm [12]: 76 to 100%

COc1ccccc1COc1ncc(F)c(NC(C)=O)n1 [Compound 309]
pest or weed control at 25 ppm [1]: 76 to 100% | pest or weed control at 100 ppm [2]: 76 to 100% | pest or weed control at 25 ppm [3]: 76 to 100% | pest or weed control at 100 ppm [4]: 76 to 100%

CN(C)/C=N/c1nc(OC(=O)OCc2ccccc2Cl)ncc1F [Compound 789]
pest or weed control at 25 ppm [1]: 76 to 100% | pest or weed control at 100 ppm [2]: 76 to 100% | pest or weed control at 25 ppm [3]: 76 to 100% | pest or weed control at 100 ppm [4]: 76 to 100%

Fc1cnc(OCC(F)(F)F)nc1NCc1cccs1 [Compound 830]
pest or weed control at 50 ppm (24 h, one day protectant): 0 to 25% | pest or weed control at 200 ppm (24 h, one day protectant): 0 to 25%

Nc1nc(OS(=O)(=O)c2ccccc2)ncc1F [Compound 29, Benzenesulfonic acid 4-amino-5-fluoropyrimidin-2-yl ester]
pest or weed control at 25 ppm [5]: 76 to 100% | pest or weed control at 100 ppm [6]: 76 to 100% | pest or weed control at 25 ppm [7]: 51 to 75% | pest or weed control at 100 ppm [8]: 76 to 100%

CCOC(CC)Nc1nc(OCc2ccc(F)cc2)ncc1F (centres unmarked) [Compound 227]
pest or weed control at 25 ppm [1]: 76 to 100% | pest or weed control at 100 ppm [2]: 76 to 100% | pest or weed control at 25 ppm [3]: 76 to 100% | pest or weed control at 100 ppm [4]: 76 to 100%

CCCNC(=O)Nc1nc(O)ncc1F [Compound 980]
pest or weed control at 25 ppm [13]: 0 to 25% | pest or weed control at 25 ppm [14]: 0 to 25% | pest or weed control at 25 ppm [15]: 0 to 25% | pest or weed control at 100 ppm [16]: 0 to 25%

COc1cc(COc2ncc(F)c(N)n2)ccc1F [Compound 581]
pest or weed control at 25 ppm [9]: 76 to 100% | pest or weed control at 100 ppm [10]: 76 to 100% | pest or weed control at 25 ppm [11]: 76 to 100% | pest or weed control at 100 ppm [12]: 76 to 100%

Fc1ccc(COc2ncc(F)c(NCc3ccccc3F)n2)c(F)c1 [Compound 921]
pest or weed control at 50 ppm (24 h, one day protectant): 76 to 100% | pest or weed control at 200 ppm (24 h, one day protectant): 76 to 100%

COc1ccccc1Oc1ncc(F)c(N)n1 [Compound 223]
pest or weed control at 25 ppm [1]: 76 to 100% | pest or weed control at 100 ppm [2]: 76 to 100% | pest or weed control at 25 ppm [3]: 76 to 100% | pest or weed control at 100 ppm [4]: 76 to 100%

CCOC(=O)Nc1nc(OCc2cccc(F)c2)ncc1F [Compound 633]
pest or weed control at 25 ppm [9]: 76 to 100% | pest or weed control at 100 ppm [10]: 76 to 100% | pest or weed control at 25 ppm [11]: 76 to 100% | pest or weed control at 100 ppm [12]: 76 to 100%

CC[Si](CC)(CC)Nc1nc(OCc2ccn(C)n2)ncc1F [Compound 434]
pest or weed control at 25 ppm [1]: 76 to 100% | pest or weed control at 100 ppm [2]: 76 to 100% | pest or weed control at 25 ppm [3]: 76 to 100% | pest or weed control at 100 ppm [4]: 76 to 100%

CC[Si](CC)(CC)Nc1nc(OC(C)c2ccc(F)cc2)ncc1F (centres unmarked) [Compound 674]
pest or weed control at 25 ppm [9]: 76 to 100% | pest or weed control at 100 ppm [10]: 76 to 100% | pest or weed control at 25 ppm [11]: 76 to 100% | pest or weed control at 100 ppm [12]: 76 to 100%

CCCCOc1cccc(C(C)Oc2ncc(F)c(N)n2)c1 (centres unmarked) [Compound 790]
pest or weed control at 25 ppm [1]: 76 to 100% | pest or weed control at 100 ppm [2]: 76 to 100% | pest or weed control at 25 ppm [3]: 76 to 100% | pest or weed control at 100 ppm [4]: 76 to 100%

Nc1nc(OCc2ccccc2Cn2cncn2)ncc1F [Compound 383]
pest or weed control at 25 ppm [1]: 0 to 25% | pest or weed control at 100 ppm [2]: 0 to 25% | pest or weed control at 25 ppm [3]: 26 to 50% | pest or weed control at 100 ppm [4]: 0 to 25%

Cc1ccc(COc2ncc(F)c(NCc3ccc(Cl)nc3)n2)cc1 [Compound 844]
pest or weed control at 50 ppm (24 h, one day protectant): 76 to 100% | pest or weed control at 200 ppm (24 h, one day protectant): 76 to 100%

Nc1nc(OCc2cc(C(F)(F)F)cc(C(F)(F)F)c2)ncc1F [Compound 139]
pest or weed control at 25 ppm [5]: 26 to 50% | pest or weed control at 100 ppm [6]: 51 to 75% | pest or weed control at 25 ppm [7]: 0 to 25% | pest or weed control at 100 ppm [8]: 26 to 50%

CCCNC(=O)Nc1nc(OCc2ccccc2OC)ncc1F [Compound 724]
pest or weed control at 25 ppm [9]: 0 to 25% | pest or weed control at 100 ppm [10]: 26 to 50% | pest or weed control at 25 ppm [11]: 0 to 25% | pest or weed control at 100 ppm [12]: 0 to 25%

CCCNC(=O)Nc1nc(OCc2ccc(OC)c(F)c2)ncc1F [Compound 170]
pest or weed control at 25 ppm [5]: 0 to 25% | pest or weed control at 100 ppm [6]: 0 to 25% | pest or weed control at 25 ppm [7]: 0 to 25% | pest or weed control at 100 ppm [8]: 0 to 25%

Oc1ncc(F)c(NNc2ccccc2Cl)n1 [Compound 1098]
pest or weed control at 25 ppm [13]: 0 to 25% | pest or weed control at 25 ppm [14]: 0 to 25% | pest or weed control at 25 ppm [15]: 0 to 25% | pest or weed control at 100 ppm [16]: 0 to 25%

Fc1cnc(OCc2ccc3c(c2)OCO3)nc1NC1CC1 [Compound 919]
pest or weed control at 200 ppm (24 h, one day protectant): 76 to 100%
